# How the values were obtained:
# [1] = system: B16F10-Nex2 melanoma cells; test: Syngeneic metastatic melanoma model, lung nodule count; type: in vivo, C57BL/6 mice
# Protocol: Male C57BL/6 mice, 6 to 8-week-old were obtained from the Center for Development of Experimental Models (CEDEME), Federal University of Sao Paulo (UNIFESP). For the in vivo metastatic model, C57BL/6 mice received one intravenous (i.v.) injection of 2×10^5 viable B16-F10-Next melanoma cells in 100 μL. […] The control group received 100 μL PBS. Twenty-two days later, mice (minimum n=3 per group) had their lungs harvested, and the number of macroscopic melanotic nodules were counted. The Ethical Committee of Federal University of São Paulo, Project no. 1234, 2011, approved all experiments with animals, according to International guidelines. For the subcutaneous model, mice were injected with 5×10^5 tumor cells suspended in 100 μL of PBS in the right flank via the subcutaneous route. The peptide (300 μg) was solubilized in 10 μL of distilled H2O and 90 μL of PBS and injected per mouse via the intraperitoneal route. The administration of the peptide was performed in 5 alternate days initiating one day after tumor challenge. Tumor longitudinal diameter (D) and transverse diameter (d) were measured every 2 days until the tumor volume reached 3,000 mm3. Animals were sacrificed when the allowed volume was reached. Volume was calculated using the formula v=Dd^2×0.52. Tumor Cell Growth In Vitro and In Vivo Details of the in vitro tumor cell growth, cytotoxicity tests, determination of viable cells and in vivo protection experiments with B16F10 cells in a mouse metastatic model are described in Polonelli et al. (PLoS One. 3(6):e2371, 2008) and Dobroff et al. (Transl. Onc., 3: 204-217, 2010).
# 6 to 8 Week-old C57BL/6 mice (n=5, per group) were intravenously challenged with 1×10^5 of syngeneic B16F10-Nex2 viable cells in 0.1 mL of RPMI medium without FBS, and treated on the next day with intraperitoneal doses of 300 μg (10 mg/kg) each, of Scr1, Scr2, Scr3 or Scr4 peptide or with the control vehicle (PBS) in alternate days, total of 5 doses. After 14 days, mice were euthanized, and lungs were harvested and assessed for metastatic colonization. The number of metastatic lesions was quantified using a stereo microscope (Nikon, Tokyo). The percentage of the tumor area/total area was also quantified by ImageJ software.
# B16F10-Nex2 tumor cells (2×10^5) in RPMI (100 μl) were injected in both animal groups in the tail veins on day 0. Animals were sacrificed on day 22, or 10 days after the last administration of the peptide, and their lungs were examined for dark melanotic nodules.
# C57Bl6 mice were intravenously challenged with 4×10^5 syngeneic B16F10-Nex2 cells in 0.1 ml of RPMI without FBS.
# Mice were injected with 5×10^5 B16F10-Nex2 cells i.v. suspended in 100 μl PBS. […] Imiquimod at 50 μg/100 μl was injected i.p. in 3 alternate days; CpG ODN 1585, i.p., in two alternate days; and Poly (I:C), i.p., in two alternate days. After 15 days of tumor challenge, the animals were sacrificed, the lungs were removed and the pulmonary nodules were counted.
# [2] = system: B16F10-Nex2 melanoma cells; test: Prophylactic adoptive transfer of peptide-stimulated dendritic cells, metastatic melanoma; type: in vivo, syngeneic mice; details: DCs incubated with 50 μg/ml peptide, with or without tumor cell lysate; s.c.; tumor challenge day 14, count day 29
# Protocol: DCs were obtained from the bone marrow of 6 to 8-week-old C57Bl6 mice. Briefly, femora and tibiae from mice were removed and stripped of muscles and tendons; both bone ends were cut, and bone marrow was extracted by placing the bone pieces into 1-ml tips, which in turn were inserted into 15-ml tubes and centrifuged for 10 minutes at 1500 rpm. Cells were resuspended in DMEM and cell clusters were dissociated by repeated pipetting. The total bone marrow cells were cultured in 100-mm treated tissue culture dish in 10 ml of R10 medium (DMEM medium supplemented with 2 mM glutamine, 10,000 U/ml penicillin, 10 mg/ml streptomycin, 50 μM 2-mercaptoethanol, 1 mM sodium pyruvate, MEM-nonessential aminoacids, MEM Vitamin solution, 10% heat-inactivated fetal bovine serum and GM-CSF (20 ng/ml) and IL-4 (40 ng/ml). Fresh medium (3 ml) with GM-CSF (200 ng/ml) and IL-4 (400 ng/ml) was added every 3 days. On day 7, adherent cells, that were harvested using PBS 2 mM EDTA, together with the non-adherent cells were pooled and used as the starting cell source for the experiments. BMDC Protocol 2
# DCs were inoculated s.c. in syngeneic mice. On day 14, mice were inoculated i.v. with melanoma tumor cells (5×10^5 cells) and on day 29, the lung melanotic nodules were counted.
# [3] = system: CD11c+, MHC II+ bone marrow DCs; test: Marker expression of bone marrow DCs with or without Poly I:C (flow cytometry); type: cell-based, C57Bl6 mice; details: 60 h
# Protocol: DCs were obtained from the bone marrow of 6 to 8-week-old C57Bl6 mice. Briefly, femora and tibiae from mice were removed and stripped of muscles and tendons; both bone ends were cut and bone marrow was flushed out with RPMI 1640 medium using a 21-gauge needle and syringe. Cell clusters were dissociated by passing through a cell strainer and 0.45 M ammonium chloride was added for red cell lysis. After washing the cell suspension twice in RPMI 1640, 10×10^6 bone marrow cells per well were cultured in non-treated tissue-culture 6-well plates with 4 ml of complete medium (RPMI 1640 supplemented with 2 mM glutamine, 10,000 U/mL penicillin, 10 mg/mL streptomycin, 50 μM 2-mercaptoethanol, 10% heat-inactivated fetal calf serum with GM-CSF (50 ng/ml). Half of the medium was removed on day 2 and new medium supplemented with GM-CSF (100 ng/ml) and warmed at 37° C. was added. The culture medium was entirely discarded on day 3 and replaced by fresh warmed medium with GM-CSF (50 ng/ml). On day 6, non-adherent cells in the culture supernatant and loosely adherent cells harvested by gentle washing with PBS were pooled and used as the starting cell source for the experiments.
# For murine cell analysis, these were stained in ice-cold PBS containing BSA (0.5%) and EDTA (2 mM) using appropriate antibody-fluorophore conjugates. Multiparameter analysis was performed on a BD FACSCanto II analyzer (BD Biosciences) and analyzed with FlowJo software (Tree Star). The following antibodies were used: anti-MHC Class II, anti-CD11c, anti-CD8a, anti-CD3e, anti-CD4, anti-CD86, anti-CD40, anti-CD80, Prior to acquisition, cells were resuspended in PBS/BSA 0.5%/EDTA (2 mM).
# DCs were centrifuged and washed once with MACS buffer. Cells (10^6) were resuspended in 45 μl of buffer and 5 μl of antibodies/fluorophore, CD11c APC, MHC II PE, CD80 FITC, CD86 VioBlue and CD40 PE. The samples were acquired in BD FACS Canto II using the FacsDiva software. The data were analyzed by using the FlowJo software.
# [4] = 100 μg/ml peptide + 12.5 μg/ml Poly I:C
substance,measurement,setting,value
"[CARGETARATFAYWGQGC], NH2 (C-C) [Rb9]",protection in the metastatic model,[1]; 50-100 μg i.p. doses,significant protection
same,efficiency of administration route for antitumor protection,[1]; i.d. route compared with i.p. and i.v.,mostly efficient
same,antitumor activity (pulmonary nodules),"[1]; i.p., alone, Rb9 300 μg 5 consecutive days, Imiquimod 50 μg 3 alternate days, CpG and Poly (I:C) two alternate days, 15 days after challenge",Antitumor activities of Rb9 and Imiquimod were the same
same,antitumor activity of the combination of Rb9 and Imiquimod,"[1]; i.p., 15 days after challenge",not additive
same,number of lung tumor cell nodules (protection),"[1]; immunocompetent C57Bl6 mice, 250 μg i.p. on days 1,3,5,7,9,11, lungs on day 22",clearly protective
same,"best concentrations for protection, dose range per animal",[1]; metastatic model,200 to 300 µg
same,protective effect of peptide-stimulated DCs (lung melanotic nodules),[2],remarkable protective effect
same,CD40 expression over Poly I:C,[3]; [4],stimulated CD40 over Poly I:C much like Rb9
same,CD86 expression over Poly I:C,[3]; [4],stimulated CD86 over Poly I:C
same,expression of CD80,"[3]; 100 μg/ml peptide, with or without Poly I:C",similar
